These results are taken from patent publication US20140045779A1, “COMPOUNDS CONTAINING AN ALICYCLIE STRUCTURE AND ANTI-TUMOR APPLICATION” (priority 2011, published 2014).

In brackets after ≈: the same amount, converted by molar mass. Read-outs that look alike come from different tables or passages of the source.

The subject of assay [1] is mouse ascites sarcoma S180. Put plainly: Efficacy studies of anti-tumor in vivo, S180 sarcoma in Kunming mice. As to conditions: for Difference from the control group in S180 sarcoma growth: Kunming mice, S180, p<0.05; for Growth Inhibition of S180 sarcoma, inhibition rate: mouse, in vivo, ip.
The subject of assay [2] is MCF7 cells (breast cancer cells). Put plainly: In vitro anti-cancer cell experiment (MTT), MCF7. As to conditions: Homo sapiens.
[3] abbreviates: MCF7, 48 h, read-out: Growth Inhibition of cell line IC50, MCF7.
Where [4] appears, read: MCF7, read-out: IC50, anti-proliferative effect on MCF7 cells.

For the compound `O=C(CN1C(=O)C2C3CC(O)C(O3)C2C1=O)NC12CC3CC(CN(C3)C1)C2` (stereo not shown) [Example 7, N-((1r,3r)-1-azaadamantan-3-yl)-2-(5-hydroxy-1,3-dioxohexahydro-1H-4,7-epoxyisoindol-2(3H)-yl)acetamide], the “Difference from the control group in S180 sarcoma growth” value (“Difference from the control group” for short) in assay [1] is reported as “significant difference”. Consider `O=C(CN1C(=O)c2ccc([N+](=O)[O-])cc2C1=O)NC12CC3CC(CN(C3)C1)C2` [Example 8, N-((1r,3r,5R,7S)-1-azaadamantan-3-yl)-2-(5-nitro-1,3-dioxoisoindolin-2-yl)acetamide], for which the “Difference from the control group” value in assay [1] is “significant difference”. In the case of `Nc1ccc2c(c1)C(=O)N(CC(=O)NC13CC4CC(CN(C4)C1)C3)C2=O` [Example 9, N-((1r,3r,5R,7S)-1-azaadamantan-3-yl)-2-(5-amino-1,3-dioxoisoindolin-2-yl)acetamide], the “Difference from the control group” value in assay [1] is “significant difference”. Regarding `O=C(Cn1cnc(-c2ccccc2)c1-c1ccccc1)NC12CC3CC(CC(C3)C1)C2` [Example 11, N-((1s,3s)-adamantan-1-yl)-2-(4,5-diphenyl-1H-imidazol-1-yl)acetamide], the “Difference from the control group” value in assay [1] is “significant difference”.

As for `O=C1C2CC3CC(C2)OC1C3` (stereo not shown) [Example 43, 2-oxaadamantan-4-one], the IC50 in assay [2] (setting [3]) and in assay [2] (setting [4]) was 44.2 µg/mL (≈ 291 µM) throughout. For `OC12CC3CC(CC(C3)O1)C2` [Example 47, 2-oxaadamantan-1-ol], the IC50 in assay [2] (setting [3]) and in assay [2] (setting [4]) was 56.3 µg/mL (≈ 365 µM) in each case. `COc1cc(C23CN4CN(C2)CC(c2cc(OC)c(OC)c(OC)c2)(C4)C3=O)cc(OC)c1OC` [Example 62, (1r,3r,5r,7r)-5,7-bis(3,4,5-trimethoxyphenyl)-1,3-diazaadamantan-6-one]: the half-inhibitory concentration (IC50) in assay [2] (setting [3]) and in assay [2] (setting [4]) was 6.94 µg/mL (≈ 14.3 µM) each time. With `CCCCCNC12CN3CN(CN(C3)C1)C2` [Example 68, (1s,3s,5s)-N-pentyl-1,3,5-triazaadamantan-7-amine], the “Difference from the control group” value in assay [1] is recorded as “significant difference”. The IC50 in assay [2] (setting [3]) and in assay [2] (setting [4]) was 2.28 µg/mL (≈ 10.2 µM) in each case. On to `COC(=O)C12C3CC4CC5C3CC(CC5C1(C(=O)OC)N4C)N2C` [Example 107, dimethanol decahydro-2,8,4,6-(cyclobutyl[1,2,3,4]dimethyl) naphthalene-2,4,4a,6-dicarboxylate], for which the “Difference from the control group” value in assay [1] is “significant difference”. As for “(1R,3R,5S,7S,Z)-1-azaadamantan-4- one oxime [Example 55]”, the “Growth Inhibition of S180 sarcoma, inhibition rate” value in assay [1] came out at 32%.

Turning to “(1R,3S,5R,7S,Z)-1-hydroxy-3-methyl-2- oxaadamantan-6-one oxime [Example 74]”, the “Growth Inhibition of S180 sarcoma, inhibition rate” value in assay [1] stood at 20%.
